# Test system: CD34+ cells from human umbilical cord blood
# Experiment: CD34+ cell culture and expansion while limiting differentiation (StemSpan ACF + CC110), flow cytometry
# Assay type: cell-based
# Protocol: CD34+ cells were isolated from human umbilical cord blood by positive selection according to standard procedures. Purified CD34+ cells from either single units or pooled from several units of cord blood were seeded in 1 mL of the appropriate culture medium in 24-well plates at a density of approximately 10^5 cells/mL. Cells were maintained at a density of 10^5-10^6 cells/mL throughout the culture by dilution and/or medium replacement.
# For CD34+ cell culture and expansion while limiting differentiation, cells were grown in StemSpan™-ACF medium ([…]™ Technologies) supplemented with StemSpan™ CC110 cytokine cocktail ([…]™ Technologies), and counted on days 4, 7, 10, 14, 17, and 21.
# Cell counts and viability were measured using the NucleoCounter NC-250™ Viability and Cell Count Assay system (ChemoMetec Inc., Davis, Calif.), according to the manufacturer's instructions.
# Cell phenotypes were determined by flow cytometry on the indicated days using the following panel of labeled primary antibodies: CD34-FITC, CD45RA-APC, CD41a-APC, CD42b-PE, and CD235-PE.
# CD34+ cells were isolated and cultured in a medium suitable for maintaining their self-renewal while limiting their differentiation into progenitors (StemSpan™ ACF supplemented with StemSpan™ CC110 cytokine cocktail, as described in Example 1.2).
# Cell phenotypic profiles of the expanded CD34+ cells were determined on days 4, 7, 10, 14, 17, and 21 by flow cytometry as described in Example 1.3.
structure (smiles),measurement,setting,value
"Cl.Cn1nnc(-c2ccc3c(c2)[nH]c2nc(Cc4ccccc4)nc(N[C@H]4CC[C@H](N)CC4)c23)n1 [PIC, (1r,4r)-N1-(2-benzyl-7-(2-methyl-2H-tetrazol-5-yl)-9H-pyrimido[4,5-b]indol-4-yl)cyclohexane-1,4-diamine hydrochloride]",Percentage of cells bearing CD34+/CD41+,"Day 4, 39° C. + PIC 35 nM",8.37%
same,Percentage of cells bearing CD34+/CD235+,"Day 4, 39° C. + PIC 35 nM",3.65%
same,Percentage of cells bearing CD41+,"Day 4, 39° C. + PIC 35 nM",9.05%
same,Percentage of cells bearing CD42+,"Day 4, 39° C. + PIC 35 nM",2.21%
same,Percentage of cells bearing CD45RA+,"Day 4, 39° C. + PIC 35 nM",57.92%
same,Percentage of cells bearing CD235+,"Day 4, 39° C. + PIC 35 nM",4.11%
same,Percentage of cells bearing CD34+,"Day 7, 37° C. + PIC 35 nM",94.61%
same,Percentage of cells bearing CD34+/CD41+,"Day 7, 37° C. + PIC 35 nM",15.74%
same,Percentage of cells bearing CD34+/CD235+,"Day 7, 37° C. + PIC 35 nM",5.28%
same,Percentage of cells bearing CD41+,"Day 7, 37° C. + PIC 35 nM",15.93%
same,Percentage of cells bearing CD42+,"Day 7, 37° C. + PIC 35 nM",1.30%
same,Percentage of cells bearing CD45RA+,"Day 7, 37° C. + PIC 35 nM",80.07%
same,Percentage of cells bearing CD34+,"Day 7, 39° C. + PIC 35 nM",88.27%
same,Percentage of cells bearing CD34+/CD41+,"Day 7, 39° C. + PIC 35 nM",16.17%
same,Percentage of cells bearing CD34+/CD235+,"Day 7, 39° C. + PIC 35 nM",9.68%
same,Percentage of cells bearing CD41+,"Day 7, 39° C. + PIC 35 nM",18.12%
same,Percentage of cells bearing CD42+,"Day 7, 39° C. + PIC 35 nM",2.92%
same,Percentage of cells bearing CD45RA+,"Day 7, 39° C. + PIC 35 nM",74.14%
same,Percentage of cells bearing CD235+,"Day 7, 39° C. + PIC 35 nM",10.89%
same,Percentage of cells bearing CD34+,"Day 10, 37° C. + PIC 35 nM",84.26%
same,Percentage of cells bearing CD34+/CD41+,"Day 10, 37° C. + PIC 35 nM",12.94%
same,Percentage of cells bearing CD34+/CD235+,"Day 10, 37° C. + PIC 35 nM",2.16%
same,Percentage of cells bearing CD41+,"Day 10, 37° C. + PIC 35 nM",14.19%
same,Percentage of cells bearing CD42+,"Day 10, 37° C. + PIC 35 nM",0.48%
same,Percentage of cells bearing CD45RA+,"Day 10, 37° C. + PIC 35 nM",88.37%
same,Percentage of cells bearing CD235+,"Day 10, 37° C. + PIC 35 nM",2.33%
same,Percentage of cells bearing CD34+,"Day 10, 39° C. + PIC 35 nM",71.28%
same,Percentage of cells bearing CD34+/CD41+,"Day 10, 39° C. + PIC 35 nM",20.80%
same,Percentage of cells bearing CD34+/CD235+,"Day 10, 39° C. + PIC 35 nM",7.94%
same,Percentage of cells bearing CD41+,"Day 10, 39° C. + PIC 35 nM",27.40%
same,Percentage of cells bearing CD42+,"Day 10, 39° C. + PIC 35 nM",1.35%
same,Percentage of cells bearing CD45RA+,"Day 10, 39° C. + PIC 35 nM",82.34%
same,Percentage of cells bearing CD235+,"Day 10, 39° C. + PIC 35 nM",9.36%
same,Percentage of cells bearing CD34+,"Day 14, 37° C. + PIC 35 nM",58.28%
same,Percentage of cells bearing CD34+/CD41+,"Day 14, 37° C. + PIC 35 nM",9.55%
same,Percentage of cells bearing CD34+/CD45RA−,"Day 14, 37° C. + PIC 35 nM",15.22%
same,Percentage of cells bearing CD34+/CD235+,"Day 14, 37° C. + PIC 35 nM",1.39%
same,Percentage of cells bearing CD41+,"Day 14, 37° C. + PIC 35 nM",15.16%
same,Percentage of cells bearing CD42+,"Day 14, 37° C. + PIC 35 nM",0.19%
same,Percentage of cells bearing CD45RA+,"Day 14, 37° C. + PIC 35 nM",84.63%
same,Percentage of cells bearing CD235+,"Day 14, 37° C. + PIC 35 nM",2.10%
same,Percentage of cells bearing CD34+,"Day 14, 39° C. + PIC 35 nM",48.58%
same,Percentage of cells bearing CD34+/CD41+,"Day 14, 39° C. + PIC 35 nM",13.88%
same,Percentage of cells bearing CD34+/CD45RA−,"Day 14, 39° C. + PIC 35 nM",19.74%
same,Percentage of cells bearing CD34+/CD235+,"Day 14, 39° C. + PIC 35 nM",3.72%
same,Percentage of cells bearing CD41+,"Day 14, 39° C. + PIC 35 nM",32.04%
same,Percentage of cells bearing CD42+,"Day 14, 39° C. + PIC 35 nM",1.16%
same,Percentage of cells bearing CD45RA+,"Day 14, 39° C. + PIC 35 nM",81.97%
same,Percentage of cells bearing CD34+,"Day 17, 37° C. + PIC 35 nM",48.29%
same,Percentage of cells bearing CD34+/CD41+,"Day 17, 37° C. + PIC 35 nM",9.75%
same,Percentage of cells bearing CD34+/CD45RA−,"Day 17, 37° C. + PIC 35 nM",13.58%
same,Percentage of cells bearing CD34+/CD235+,"Day 17, 37° C. + PIC 35 nM",0.52%
same,Percentage of cells bearing CD41+,"Day 17, 37° C. + PIC 35 nM",24.70%
same,Percentage of cells bearing CD42+,"Day 17, 37° C. + PIC 35 nM",0.63%
same,Percentage of cells bearing CD45RA+,"Day 17, 37° C. + PIC 35 nM",87.89%
same,Percentage of cells bearing CD235+,"Day 17, 37° C. + PIC 35 nM",3.94%
same,differentiation of the cells towards the megakaryocytic and erythroid (CD235+) lineages,combined mild hyperthermia (39° C.) and PIC 35 nM,did not lead to an enhanced differentiation

# Source: US11666600B2, “Methods for culturing and/or differentiating hematopoietic stem cells into progenitors and uses thereof” (HEMA-QUEBEC, priority 2015, dated 2023)
